How the values were obtained:
Format in all cases: ADME, organism-based
[1] = Plasma concentration in mouse at 100 mg/kg, po after 1 hr; set-up: dose 100 mg/kg, route oral
[2] = Plasma concentration in mouse at 100 mg/kg, po after 4 hrs; set-up: dose 100 mg/kg, route oral
[3] = Clearance in rat at 5 mg/kg; set-up: dose 5 mg/kg; conditions: in vivo
[4] = Volume of distribution in rat at 5 mg/kg; set-up: dose 5 mg/kg; conditions: in vivo
[5] = Half life in rat at 5 mg/kg, iv; set-up: dose 5 mg/kg, route intravenous; conditions: in vivo
[6] = Half life in rat at 5 mg/kg, po; set-up: dose 5 mg/kg, route oral; conditions: in vivo
[7] = Oral bioavailability in rat at 5 mg/kg; conditions: in vivo
[8] = Cmax in rat at 5 mg/kg, iv; set-up: dose 5 mg/kg, route intravenous; conditions: in vivo
[9] = Cmax in rat at 5 mg/kg, po; set-up: dose 5 mg/kg, route oral; conditions: in vivo
Rattus norvegicus [10] = assay: Dose normalised AUC in rat at 5 mg/kg, iv; set-up: dose 5 mg/kg, route intravenous; conditions: in vivo
Rattus norvegicus [11] = assay: Dose normalised AUC in rat at 5 mg/kg, po; set-up: dose 5 mg/kg, route oral; conditions: in vivo
[12] = Clearance in rat at […]; set-up: dose 2.5 mg/kg; conditions: in vivo
[13] = Volume of distribution in rat at […]; set-up: dose 2.5 mg/kg; conditions: in vivo
[14] = Half life in rat at […], iv; set-up: dose 2.5 mg/kg, route intravenous; conditions: in vivo
[15] = Half life in rat at […], po; set-up: dose 2.5 mg/kg, route oral; conditions: in vivo
[16] = Oral bioavailability in rat at […]; conditions: in vivo
[17] = Cmax in rat at […], iv; set-up: dose 2.5 mg/kg, route intravenous; conditions: in vivo
[18] = Cmax in rat at […], po; set-up: dose 2.5 mg/kg, route oral; conditions: in vivo
Rattus norvegicus [19] = assay: Dose normalised AUC in rat at […], iv; set-up: dose 2.5 mg/kg, route intravenous; conditions: in vivo
Rattus norvegicus [20] = assay: Dose normalised AUC in rat at […], po; set-up: dose 2.5 mg/kg, route oral; conditions: in vivo

Structure (SMILES) | concentration at 1 h [1] [µM] | concentration at 4 h [2] [µM] | clearance [3] [mL/min/kg] | Vd [4] [L/kg] | half-life [5] [min] | half-life [6] [min] | bioavailability [7] [%] | Cmax [8] [nM] | Cmax [9] [nM] | AUC/dose (Rattus norvegicus [10]) [µM·kg·h/mg] | AUC/dose (Rattus norvegicus [11]) [µM·kg·h/mg] | clearance [12] [mL/min/kg] | Vd [13] [L/kg] | half-life [14] [min] | half-life [15] [min] | bioavailability [16] [%] | Cmax [17] [nM] | Cmax [18] [nM] | AUC/dose (Rattus norvegicus [19]) [µM·kg·h/mg] | AUC/dose (Rattus norvegicus [20]) [µM·kg·h/mg]
O=c1[nH]c(CN2CC[C@@H](O)C2)nc2c1oc1ccc(Br)cc12 | 93 | 35 | 13.2 | 2.3 | 162 | 282 | 79 | 7600 | 3100 | 3.8 | 2.9 |  |  |  |  |  |  |  |  | 
N[C@@H]1CCN(Cc2nc3c(oc4ccc(Br)cc43)c(=O)[nH]2)C1 | 6 | 5 | 56.2 | 6.2 | 84 | 96 | 13 | 1800 | 100 | 0.8 | 0.1 |  |  |  |  |  |  |  |  | 
O=c1[nH]c(CN2CCC2)nc2c1oc1ccc(Br)cc12 | 13 | 5 |  |  |  |  |  |  |  |  |  | 30.6 | 3.8 | 60 | 60 | 77 | 1800 | 800 | 1.7 | 1.3
CN1C[C@@H]2C[C@H]1CN2Cc1nc2c(oc3ccc(Br)cc32)c(=O)[nH]1 | 11 | 7 | 34.1 | 7.1 | 156 | 156 | 86 | 1500 | 400 | 1.2 | 0.9 |  |  |  |  |  |  |  |  | 
O=c1[nH]c(CN2CC(O)C2)nc2c1oc1ccc(Br)cc12 | 78 | 22 |  |  |  |  |  |  |  |  |  | 13.5 | 2.4 | 504 | 222 | 56 | 3500 | 1200 | 2.6 | 1.5
